Assay results published in paper PMC8345109, “Optimization of New Catalytic Topoisomerase II Inhibitors as an Anti-Cancer Therapy” (Cancers, 2021).
pIC50: −log10 of the molar value.

How the values were obtained:
[1] = target: T1, TOP2A (Homo sapiens, UniProt P11388); test: K-DNA decatenation assay, TOP2A; assay type: biochemical; conditions: 0.01-200 uM, three biological repeats
Description: (§1) Figure 2 T637 and T638 are TOP2A inhibitors. (A) K-DNA decatenation assays and (B) supercoiled plasmid DNA relaxation assays are used to measure TOP2A enzyme activity in the presence of 0.01–200 uM T637 or T638. Three biological repeats were performed with each concentration of the compounds, and the densitometry of the D-DNA bands from (A) and the SC bands from (B) was used to establish an inhibition curve for IC50 calculation.

[2] = target: T1, TOP2A; test: Supercoiled plasmid DNA relaxation assay, TOP2A; assay type: biochemical; conditions: 0.01-200 uM, three biological repeats
Description: as §1

[3] = target: T2, human TOP2A(431-1193) (Homo sapiens, UniProt P11388); test: EMSA, TOP2A(431-1193) with 5ZRF DNA oligo; assay type: binding; conditions: 2 uM protein, 300 nM oligo
T2 construct: 6xHis (N); made in house; host or cells: E. coli BL21 (DE3)
T2 sequence (P11388 431-1193): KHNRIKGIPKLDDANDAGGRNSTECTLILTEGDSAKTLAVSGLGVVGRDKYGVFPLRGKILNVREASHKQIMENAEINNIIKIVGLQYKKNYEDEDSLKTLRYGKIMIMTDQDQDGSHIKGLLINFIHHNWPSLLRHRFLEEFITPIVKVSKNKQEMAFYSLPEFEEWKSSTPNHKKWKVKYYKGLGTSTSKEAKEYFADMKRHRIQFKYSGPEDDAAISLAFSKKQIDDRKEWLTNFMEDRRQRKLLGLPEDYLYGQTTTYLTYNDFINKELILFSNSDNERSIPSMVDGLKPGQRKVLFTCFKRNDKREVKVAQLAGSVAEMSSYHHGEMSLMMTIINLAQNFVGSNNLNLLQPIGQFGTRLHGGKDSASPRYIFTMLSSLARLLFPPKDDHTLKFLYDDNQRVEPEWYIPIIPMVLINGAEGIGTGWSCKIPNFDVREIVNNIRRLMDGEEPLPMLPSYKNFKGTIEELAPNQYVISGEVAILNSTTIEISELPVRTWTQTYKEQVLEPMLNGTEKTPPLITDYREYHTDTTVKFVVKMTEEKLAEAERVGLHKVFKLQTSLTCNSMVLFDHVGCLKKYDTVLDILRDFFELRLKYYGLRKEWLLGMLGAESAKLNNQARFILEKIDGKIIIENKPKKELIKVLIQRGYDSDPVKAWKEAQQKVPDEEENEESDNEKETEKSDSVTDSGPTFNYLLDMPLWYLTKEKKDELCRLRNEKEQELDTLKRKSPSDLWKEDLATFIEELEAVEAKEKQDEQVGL

[4] = Crystal formation (precipitation) in cell cultures; assay type: physicochemical; conditions: up to 100 uM
Description: Both T637 and T638 have improved solubility in aqueous solution and culture media compared to T60 (Figure 1). […] When cells are growing in the culture media and treated with T60 at concentrations ≥50 uM for two days, T60 will form crystals, likely due to the altered pH values by the cells that induce T60 precipitation. […] These improvements in solubility allow higher doses of compounds to be used to treat cancer cells to reach maximum tumor suppression.

[5] = tested on: K562 cells; test: Immunoblotting of p-H2AXγ (DNA damage); conditions: K562, 10-20 µM, 4 h
Description: (A) K562 cells were treated with 0, 0.5, 1, 5, 10, 15, and 20 uM of T60 or 0, 0.5, 1, 5, 10, 15, 20, 50, and 100 uM of T637 and T638 for 24, 48, or 72 h. […] (B) NCI-H446 small cell lung cancer line and Hela cervical cancer line were treated with 0, 0.5, 1, 5, 10, 15, and 20 uM of T60 or 0, 0.5, 1, 5, 10, 15, 20, 50, and 100 uM of T637 and T638 for five days. Cell growth rates were measured by using Incucyte^TM. (C) K562 cells were treated with 0, 5, 10, 15, and 20 uM of T60, T637, or T638 for 48 h. Cytotoxicity was evaluated by measuring the LDH levels from the culture media. (D) K562 cells were treated with the vehicle or 10–20 µM of etoposide, T60, T637, or T638 for 4 h. Immunoblotting measured p-H2AXγ levels in cells with vinculin as a loading control.

[6] = target: full-length TOP2A (Homo sapiens, UniProt P11388); test: EMSA, full-length TOP2A with 5ZRF DNA oligo; assay type: binding; parameters: EMSA was performed by purified full-length TOP2A or TOP2B proteins; conditions: 200 µM compound, 300 nM protein, 100 nM oligo
full-length TOP2A, sequence (P11388 whole entry): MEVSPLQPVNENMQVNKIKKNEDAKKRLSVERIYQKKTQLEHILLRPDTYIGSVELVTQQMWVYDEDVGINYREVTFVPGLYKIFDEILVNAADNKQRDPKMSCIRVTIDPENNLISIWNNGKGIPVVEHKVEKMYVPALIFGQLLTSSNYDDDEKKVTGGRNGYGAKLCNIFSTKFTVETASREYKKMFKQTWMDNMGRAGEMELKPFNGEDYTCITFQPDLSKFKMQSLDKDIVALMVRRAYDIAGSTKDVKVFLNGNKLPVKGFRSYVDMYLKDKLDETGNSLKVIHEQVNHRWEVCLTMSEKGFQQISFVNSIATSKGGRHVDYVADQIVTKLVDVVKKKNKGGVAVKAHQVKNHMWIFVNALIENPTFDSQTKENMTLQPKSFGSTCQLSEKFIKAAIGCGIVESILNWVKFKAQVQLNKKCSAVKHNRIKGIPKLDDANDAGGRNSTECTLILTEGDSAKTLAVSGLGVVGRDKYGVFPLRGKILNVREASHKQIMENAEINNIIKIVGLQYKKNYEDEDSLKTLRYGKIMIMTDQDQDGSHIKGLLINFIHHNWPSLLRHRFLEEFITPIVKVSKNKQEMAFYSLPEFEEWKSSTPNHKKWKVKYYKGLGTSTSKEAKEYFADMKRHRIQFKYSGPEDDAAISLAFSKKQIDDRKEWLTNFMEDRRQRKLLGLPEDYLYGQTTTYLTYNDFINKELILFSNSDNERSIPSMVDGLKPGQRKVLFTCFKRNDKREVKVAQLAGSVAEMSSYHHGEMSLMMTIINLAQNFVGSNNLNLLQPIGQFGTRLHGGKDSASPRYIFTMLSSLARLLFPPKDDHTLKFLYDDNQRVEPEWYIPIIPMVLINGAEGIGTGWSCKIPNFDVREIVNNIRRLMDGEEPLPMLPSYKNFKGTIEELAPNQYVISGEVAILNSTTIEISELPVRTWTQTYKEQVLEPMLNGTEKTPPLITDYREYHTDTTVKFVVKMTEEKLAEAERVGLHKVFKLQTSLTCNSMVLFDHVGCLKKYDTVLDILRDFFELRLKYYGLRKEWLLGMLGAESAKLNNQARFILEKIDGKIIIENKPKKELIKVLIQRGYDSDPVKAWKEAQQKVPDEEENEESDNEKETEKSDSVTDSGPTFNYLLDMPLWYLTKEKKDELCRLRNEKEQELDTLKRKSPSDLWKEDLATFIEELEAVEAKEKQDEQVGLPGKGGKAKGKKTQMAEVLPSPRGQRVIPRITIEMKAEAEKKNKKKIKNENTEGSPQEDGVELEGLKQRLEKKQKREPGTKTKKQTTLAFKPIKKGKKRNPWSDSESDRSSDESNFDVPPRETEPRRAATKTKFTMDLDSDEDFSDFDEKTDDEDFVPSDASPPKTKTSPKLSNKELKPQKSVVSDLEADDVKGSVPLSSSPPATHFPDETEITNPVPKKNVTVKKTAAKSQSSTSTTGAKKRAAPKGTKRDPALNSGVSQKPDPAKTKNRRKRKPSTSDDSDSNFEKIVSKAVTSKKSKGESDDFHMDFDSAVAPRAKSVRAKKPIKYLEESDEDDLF
Description: (A) EMSA was performed by purified full-length TOP2A or TOP2B proteins at a contraction of 300 nM with IRDay700 labeled 5ZRF DNA oligo at a concentration of 100 nM in the presence of −/+200 µM of ICRF193, T60, T637, and T638. […] Reactions were subjected to fluorescence […], which were detected by using the Multimode Microplate Reader (Infinite F500). (D) DNA cleavage assays were performed using full-length human TOP2A and TOP2B incubated with the supercoiled pHOT plasmid in the presence of 200 µM of etoposide plus 1, 100, or 200 µM of ICRF193, T60, T637, and T638. Reactions were separated on a DNA gel with ethidium bromide. All experiments were repeated three times, and one representative image was shown. Note: N, nicked DNA; L, linear DNA; and SC, supercoiled DNA.

T1 sequence (P11388 whole entry): as above

- pIC50 [1]: ~6.15
- pIC50 [2]: 5.68
- Crystal formation in cell cultures, in words [4]: no crystal formation
- Block of TOP2A-DNA oligo complex formation (EMSA) [6]: block
Structure (SMILES): Nc1cc(Nc2ccccc2)ccc1NC(=O)c1ccc[nH]c1=S [T638]
- Inhibition of TOP2A(431-1193)-DNA interaction (EMSA) [3]: inhibited TOP2A–DNA interaction dose-dependently
- Intracellular DNA damage (phospho-H2AXγ protein levels) [5]: do not cause intracellular DNA damage
